Like-named read-outs stand apart in the source and are kept apart here. Where a SMILES comes first, the peptide text is derived from it. [ ]: non-standard residue; d: D form.
Biological target: T1, PSD-95-PDZ2 (Homo sapiens, UniProt P78352)
T1 construct: 7xHis (N); made in house; host or cells: Escherichia coli B21 pLys (for the mutants, 'as previously described')
Test: Fluorescence polarization (FP) competition assay against cyclic nNOS TAMRA probe
Type: binding
Details: for Ki: cyclic nNOS TAMRA probe, mean of triplicates, N.B. = not binding; for Relative Ki (Ki mut/Ki WT): FP inhibition constant normalized to WT value

T1 sequence (P78352 160-246 limits assumed): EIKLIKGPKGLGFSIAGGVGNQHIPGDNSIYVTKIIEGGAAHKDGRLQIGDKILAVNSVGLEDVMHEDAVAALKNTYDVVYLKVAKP

Molecule: Cyclo-(THLEATFTGDGTPKTIRVTQpG(Qα)) (cyclo(THLEATFTGDGTPKTIRVTQ[dP]GQ); SMILES CC[C@H](C)[C@@H]1NC(=O)[C@H]([C@@H](C)O)NC(=O)[C@H](CCCCN)NC(=O)[C@@H]2CCCN2C(=O)[C@H]([C@@H](C)O)NC(=O)CNC(=O)[C@H](CC(=O)O)NC(=O)CNC(=O)[C@H]([C@@H](C)O)NC(=O)[C@H](Cc2ccccc2)NC(=O)[C@H]([C@@H](C)O)NC(=O)[C@H](C)NC(=O)[C@H](CCC(=O)O)NC(=O)[C@H](CC(C)C)NC(=O)[C@H](Cc2c[nH]cn2)NC(=O)[C@H]([C@@H](C)O)NC(=O)[C@H](CCC(N)=O)NC(=O)CNC(=O)[C@H]2CCCN2C(=O)[C@H](CCC(N)=O)NC(=O)[C@H]([C@@H](C)O)NC(=O)[C@H](C(C)C)NC(=O)[C@H](CCCNC(=N)N)NC1=O) [SEQ ID NO: 59]
- effect on interaction with PSD-95-PDZ2 (in words) (FP competition): abolishes binding

Molecule: CC[C@H](C)[C@@H]1NC(=O)[C@H]([C@@H](C)O)NC(=O)[C@H](CCCCN)NC(=O)[C@@H]2CCCN2C(=O)[C@H]([C@@H](C)O)NC(=O)CNC(=O)[C@H](CC(=O)O)NC(=O)CNC(=O)[C@H]([C@@H](C)O)NC(=O)[C@H](Cc2ccccc2)NC(=O)[C@H]([C@@H](C)O)NC(=O)[C@H]([C@@H](C)O)NC(=O)[C@H](CCC(=O)O)NC(=O)[C@H](CC(C)C)NC(=O)[C@H](Cc2c[nH]cn2)NC(=O)[C@H]([C@@H](C)O)N(C)C(=O)[C@H](CCC(N)=O)NC(=O)CNC(=O)[C@H]2CCCN2C(=O)[C@H](CCC(N)=O)NC(=O)[C@H]([C@@H](C)O)NC(=O)[C@H](C(C)C)NC(=O)[C@H](CCCNC(=N)N)NC1=O [compound 84]
- Ki (FP competition, read-out: Ki): 4800 nM

Molecule: CC[C@H](C)[C@@H]1NC(=O)[C@H]([C@@H](C)O)NC(=O)[C@H](CCCCN)NC(=O)[C@@H]2CCCN2C(=O)[C@H]([C@@H](C)O)NC(=O)CNC(=O)[C@H](CC(=O)O)NC(=O)CNC(=O)[C@H]([C@@H](C)O)NC(=O)[C@H](Cc2ccccc2)NC(=O)[C@H]([C@@H](C)O)NC(=O)[C@H]([C@@H](C)O)NC(=O)[C@H](CCC(=O)O)NC(=O)[C@H](CC(C)C)NC(=O)[C@H](Cc2c[nH]cn2)NC(=O)[C@H]([C@@H](C)O)NC(=O)[C@H](CCC(N)=O)NC(=O)CNC(=O)[C@H]2CCCN2C(=O)[C@H](CCC(N)=O)NC(=O)[C@H](Cc2ccc(O)cc2)NC(=O)[C@H](C(C)C)NC(=O)[C@H](CCCNC(=N)N)NC1=O [compound 49] (cyclo(THLETTFTGDGTPKTIRVYQ[dP]GQ))
- Relative Ki (Ki mut/Ki WT): 1.25

Molecule: 85 (TXLETTFTGDGTPKTIRVTQPGQ; cyclized peptide; (2)..(2) X is N-Me-H; (21)..(21) is D-AA) [compound 85]
- Ki (FP competition): N.B.

Molecule: CC[C@H](C)[C@@H]1NC(=O)[C@H]([C@@H](C)O)NC(=O)[C@H](CCCCN)NC(=O)[C@@H]2CCCN2C(=O)[C@H]([C@@H](C)O)NC(=O)CNC(=O)[C@H](CC(=O)O)NC(=O)CNC(=O)[C@H]([C@@H](C)O)NC(=O)[C@H](Cc2ccccc2)NC(=O)[C@H]([C@@H](C)O)NC(=O)[C@H]([C@@H](C)O)NC(=O)[C@H](CCC(=O)O)NC(=O)[C@H](CC(C)C)NC(=O)[C@H](Cc2c[nH]cn2)NC(=O)[C@H]([C@@H](C)O)NC(=O)[C@H](CCC(N)=O)NC(=O)CNC(=O)[C@H]2CCCN2C(=O)[C@H](CCC(N)=O)NC(=O)[C@H](CCCNC(=N)N)NC(=O)[C@H](C(C)C)NC(=O)[C@H](CCCNC(=N)N)NC1=O [compound 44] (cyclo(THLETTFTGDGTPKTIRVRQ[dP]GQ))
- Relative Ki (Ki mut/Ki WT): 1.06

Molecule: 80 (THLEXTFTGDGTPKTIRVTQPGQ; cyclized peptide; (5)..(5) X is AlloT; (21)..(21) is D-AA) [compound 80]
- Ki (FP competition): N.B.

Molecule: 108 (THLETTFTGDGTPKXIRVTQPGQ; cyclized peptide; (15)..(15) X is pT; (21)..(21) is D-AA) [compound 108]
- Ki (FP competition): N.B.

Molecule: CC[C@H](C)[C@@H]1NC(=O)[C@H]([C@@H](C)O)NC(=O)[C@H](CCCCN)NC(=O)[C@@H]2CCCN2C(=O)[C@H]([C@@H](C)O)NC(=O)CNC(=O)[C@H](CC(=O)O)NC(=O)CNC(=O)[C@H]([C@@H](C)O)NC(=O)[C@H](Cc2ccccc2)NC(=O)[C@H]([C@@H](C)O)NC(=O)[C@H]([C@@H](C)O)NC(=O)[C@H](CCC(=O)O)NC(=O)[C@H](C)NC(=O)[C@H](Cc2c[nH]cn2)NC(=O)[C@H]([C@@H](C)O)NC(=O)[C@H](CCC(N)=O)NC(=O)CNC(=O)[C@H]2CCCN2C(=O)[C@H](CCC(N)=O)NC(=O)[C@H]([C@@H](C)O)NC(=O)[C@H](C(C)C)NC(=O)[C@H](CCCNC(=N)N)NC1=O [compound 57] (cyclo(THAETTFTGDGTPKTIRVTQ[dP]GQ))
- Relative Ki (Ki mut/Ki WT): 2.36

Molecule: CC[C@H](C)[C@@H]1NC(=O)[C@H]([C@@H](C)O)NC(=O)[C@H](CCCCN)NC(=O)[C@@H]2CCCN2C(=O)[C@H]([C@@H](C)O)NC(=O)CNC(=O)[C@@H](CC(=O)O)NC(=O)CNC(=O)[C@H]([C@@H](C)O)NC(=O)[C@H](Cc2ccccc2)NC(=O)[C@H]([C@@H](C)O)NC(=O)[C@H]([C@@H](C)O)NC(=O)[C@H](CCC(=O)O)NC(=O)[C@H](CC(C)C)NC(=O)[C@H](Cc2c[nH]cn2)NC(=O)[C@H]([C@@H](C)O)NC(=O)[C@H](CCC(N)=O)NC(=O)CNC(=O)[C@H]2CCCN2C(=O)[C@H](CCC(N)=O)NC(=O)[C@H]([C@@H](C)O)NC(=O)[C@H](C(C)C)NC(=O)[C@H](CCCNC(=N)N)NC1=O [compound 120]
- Ki (FP competition, read-out: Ki): 590 nM

Molecule: CC[C@H](C)[C@@H]1NC(=O)[C@H]([C@@H](C)O)NC(=O)[C@H](CCCCN)NC(=O)[C@@H]2CCCN2C(=O)[C@H]([C@@H](C)O)NC(=O)[C@H](CCCNC(=N)N)NC(=O)[C@H](CC(=O)O)NC(=O)CNC(=O)[C@H]([C@@H](C)O)NC(=O)[C@H](Cc2ccccc2)NC(=O)[C@H]([C@@H](C)O)NC(=O)[C@H]([C@@H](C)O)NC(=O)[C@H](CCC(=O)O)NC(=O)[C@H](CC(C)C)NC(=O)[C@H](Cc2c[nH]cn2)NC(=O)[C@H]([C@@H](C)O)NC(=O)[C@H](CCC(N)=O)NC(=O)CNC(=O)[C@H]2CCCN2C(=O)[C@H](CCC(N)=O)NC(=O)[C@H]([C@@H](C)O)NC(=O)[C@H](C(C)C)NC(=O)[C@H](CCCNC(=N)N)NC1=O [compound 35] (cyclo(THLETTFTGDRTPKTIRVTQ[dP]GQ))
- Relative Ki (Ki mut/Ki WT): 0.50

Molecule: CC[C@H](C)[C@@H]1NC(=O)[C@H]([C@@H](C)O)NC(=O)[C@H](CCCCN)NC(=O)[C@@H]2CCCN2C(=O)[C@H]([C@@H](C)O)NC(=O)CNC(=O)[C@H](CC(=O)O)NC(=O)CNC(=O)[C@H]([C@@H](C)O)NC(=O)[C@H](Cc2ccccc2)NC(=O)[C@H]([C@@H](C)O)NC(=O)[C@H]([C@@H](C)O)NC(=O)[C@H](CCC(=O)O)NC(=O)[C@H](CC(C)C)NC(=O)[C@H](Cc2ccc(O)cc2)NC(=O)[C@H]([C@@H](C)O)NC(=O)[C@H](CCC(N)=O)NC(=O)CNC(=O)[C@H]2CCCN2C(=O)[C@H](CCC(N)=O)NC(=O)[C@H]([C@@H](C)O)NC(=O)[C@H](C(C)C)NC(=O)[C@H](CCCNC(=N)N)NC1=O [compound 26] (cyclo(TYLETTFTGDGTPKTIRVTQ[dP]GQ))
- Relative Ki (Ki mut/Ki WT): 0.79

— patent publication US20230220021A1, “CYCLIC PEPTIDE INHIBITORS OF PSD-95 AND USES THEREOF” (University of Copenhagen, priority 2020, published 2023)
